Key:
Assay in all cases: radiometric filter-binding kinase assay, Kinase HotSpot
Details in all cases: compound 0.5 µM; ATP 10 µM
TAOK3 (human) = TAOK3 (human) (UniProt Q9H2K8)
LTK (human) = LTK (human) (UniProt P29376)
PRKD1 (human) = PRKD1 (human) (UniProt Q15139)
STK24 (human) = STK24 (human) (UniProt Q9Y6E0)
HIPK2 (human) = HIPK2 (human) (UniProt Q9H2X6)
MAP2K2 (human) = MAP2K2 (human) (UniProt P36507)
ABL2 (human) = ABL2 (human) (UniProt P42684)
FLT3 (human) = FLT3 (human) (UniProt P36888)
MYLK (human) = MYLK (human) (UniProt Q15746)
FGFR2 (human) = FGFR2 (human) (UniProt P21802)
PRKCE (human) = PRKCE (human) (UniProt Q02156)
STK16 (human) = STK16 (human) (UniProt O75716)
FGR (human) = FGR (human) (UniProt P09769)
JAK2 JH1 JH2 (human) = JAK2 JH1 JH2 (human) (UniProt O60674)
DYRK1A (human) = DYRK1A (human) (UniProt Q13627)
MAP3K14 (human) = MAP3K14 (human) (UniProt Q99558)
KIT (human) = KIT (human) (UniProt P10721)
SRPK2 (human) = SRPK2 (human) (UniProt P78362)
MAPK9 (human) = MAPK9 (human) (UniProt P45984)
PASK (human) = PASK (human) (UniProt Q96RG2)
AURKB (human) = AURKB (human) (UniProt Q96GD4)
CAMKK1 (human) = CAMKK1 (human) (UniProt Q8N5S9)
DDR2 (human) = DDR2 (human) (UniProt Q16832)
CLK2 (human) = CLK2 (human) (UniProt P49760)
DSTYK (human) = DSTYK (human) (UniProt Q6XUX3)
CDK7 CCNH MNAT1 (human) = CDK7 CCNH MNAT1 (human) (UniProt P50613+P51948+P51946)
TAOK2 (human) = TAOK2 (human) (UniProt Q9UL54)
OXSR1 (human) = OXSR1 (human) (UniProt O95747)
SIK2 (human) = SIK2 (human) (UniProt Q9H0K1)
PLK2 (human) = PLK2 (human) (UniProt Q9NYY3)
EPHA1 (human) = EPHA1 (human) (UniProt P21709)
CAMK2A (human) = CAMK2A (human) (UniProt Q9UQM7)
ALK (human) = ALK (human) (UniProt Q9UM73)
TNK2 (human) = TNK2 (human) (UniProt Q07912)
DCLK2 (human) = DCLK2 (human) (UniProt Q8N568)
CSNK1G3 (human) = CSNK1G3 (human) (UniProt Q9Y6M4)
MST1R (human) = MST1R (human) (UniProt Q04912)
TYRO3 (human) = TYRO3 (human) (UniProt Q06418)
AURKC (human) = AURKC (human) (UniProt Q9UQB9)
CSNK2A2 (human) = CSNK2A2 (human) (UniProt P19784)
SLK (human) = SLK (human) (UniProt Q9H2G2)
PRKACA (human) = PRKACA (human) (UniProt P17612)

Chain of MAP2K2 (human) (P36507 whole entry, looked up): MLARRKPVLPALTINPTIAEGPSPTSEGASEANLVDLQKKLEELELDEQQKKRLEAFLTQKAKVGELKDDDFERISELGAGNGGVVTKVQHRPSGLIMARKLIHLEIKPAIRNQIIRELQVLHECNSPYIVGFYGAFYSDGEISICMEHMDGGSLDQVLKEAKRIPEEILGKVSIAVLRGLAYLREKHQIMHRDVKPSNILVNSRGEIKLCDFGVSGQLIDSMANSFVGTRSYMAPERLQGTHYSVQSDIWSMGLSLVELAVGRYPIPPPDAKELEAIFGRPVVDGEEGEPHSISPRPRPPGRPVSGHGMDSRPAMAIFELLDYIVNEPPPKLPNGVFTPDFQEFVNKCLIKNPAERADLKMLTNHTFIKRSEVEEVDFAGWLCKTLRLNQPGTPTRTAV
Chain of ABL2 (human) (P42684 whole entry, looked up): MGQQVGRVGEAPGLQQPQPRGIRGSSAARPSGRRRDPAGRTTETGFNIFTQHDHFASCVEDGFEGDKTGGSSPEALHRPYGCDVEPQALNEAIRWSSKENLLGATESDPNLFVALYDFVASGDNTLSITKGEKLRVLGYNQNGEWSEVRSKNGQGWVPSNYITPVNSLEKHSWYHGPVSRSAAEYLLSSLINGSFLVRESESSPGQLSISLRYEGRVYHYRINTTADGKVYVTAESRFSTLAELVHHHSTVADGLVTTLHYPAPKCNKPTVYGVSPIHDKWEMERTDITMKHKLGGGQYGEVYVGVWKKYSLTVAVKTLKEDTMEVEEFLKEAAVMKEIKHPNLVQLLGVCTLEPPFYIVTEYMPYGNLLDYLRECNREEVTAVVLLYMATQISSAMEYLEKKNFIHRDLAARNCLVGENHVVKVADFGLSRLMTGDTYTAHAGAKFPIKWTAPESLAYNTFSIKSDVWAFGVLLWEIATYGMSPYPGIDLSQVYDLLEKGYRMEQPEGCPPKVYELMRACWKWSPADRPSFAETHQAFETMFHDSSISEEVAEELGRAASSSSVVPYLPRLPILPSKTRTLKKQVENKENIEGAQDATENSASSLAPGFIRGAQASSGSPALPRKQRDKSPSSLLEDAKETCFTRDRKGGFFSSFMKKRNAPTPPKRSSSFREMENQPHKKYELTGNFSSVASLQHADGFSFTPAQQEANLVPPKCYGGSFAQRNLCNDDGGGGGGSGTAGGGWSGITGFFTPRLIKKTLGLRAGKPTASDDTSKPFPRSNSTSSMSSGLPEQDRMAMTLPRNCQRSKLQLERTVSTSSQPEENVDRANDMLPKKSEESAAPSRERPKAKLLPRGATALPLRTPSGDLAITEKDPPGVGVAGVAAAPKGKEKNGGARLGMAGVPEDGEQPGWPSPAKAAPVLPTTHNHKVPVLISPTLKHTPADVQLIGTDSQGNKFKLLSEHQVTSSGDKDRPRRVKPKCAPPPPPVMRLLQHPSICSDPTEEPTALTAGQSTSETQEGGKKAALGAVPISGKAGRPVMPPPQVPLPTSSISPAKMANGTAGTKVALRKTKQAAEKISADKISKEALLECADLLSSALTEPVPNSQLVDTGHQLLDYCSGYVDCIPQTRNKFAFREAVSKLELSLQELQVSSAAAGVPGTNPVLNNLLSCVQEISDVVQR
Chain of PLK2 (human) (Q9NYY3 whole entry, looked up): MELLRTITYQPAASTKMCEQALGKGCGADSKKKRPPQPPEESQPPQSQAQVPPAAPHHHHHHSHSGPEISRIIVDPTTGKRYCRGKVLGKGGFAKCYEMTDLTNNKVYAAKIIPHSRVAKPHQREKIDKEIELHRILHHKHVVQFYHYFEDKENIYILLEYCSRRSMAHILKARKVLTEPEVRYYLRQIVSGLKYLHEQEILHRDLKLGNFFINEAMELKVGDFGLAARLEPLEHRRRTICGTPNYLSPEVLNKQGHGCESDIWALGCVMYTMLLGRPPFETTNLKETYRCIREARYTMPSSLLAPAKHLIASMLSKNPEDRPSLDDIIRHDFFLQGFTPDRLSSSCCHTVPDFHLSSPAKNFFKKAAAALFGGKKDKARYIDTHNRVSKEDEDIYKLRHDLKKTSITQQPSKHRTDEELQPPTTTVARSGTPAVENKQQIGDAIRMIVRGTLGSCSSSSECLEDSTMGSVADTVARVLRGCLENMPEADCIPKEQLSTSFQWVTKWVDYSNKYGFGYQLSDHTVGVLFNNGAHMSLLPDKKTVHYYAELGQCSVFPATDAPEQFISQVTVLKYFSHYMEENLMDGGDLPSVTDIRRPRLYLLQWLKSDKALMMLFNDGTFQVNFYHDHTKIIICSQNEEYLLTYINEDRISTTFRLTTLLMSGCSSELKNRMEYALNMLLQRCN
Chain of DDR2 (human) (Q16832 whole entry, looked up): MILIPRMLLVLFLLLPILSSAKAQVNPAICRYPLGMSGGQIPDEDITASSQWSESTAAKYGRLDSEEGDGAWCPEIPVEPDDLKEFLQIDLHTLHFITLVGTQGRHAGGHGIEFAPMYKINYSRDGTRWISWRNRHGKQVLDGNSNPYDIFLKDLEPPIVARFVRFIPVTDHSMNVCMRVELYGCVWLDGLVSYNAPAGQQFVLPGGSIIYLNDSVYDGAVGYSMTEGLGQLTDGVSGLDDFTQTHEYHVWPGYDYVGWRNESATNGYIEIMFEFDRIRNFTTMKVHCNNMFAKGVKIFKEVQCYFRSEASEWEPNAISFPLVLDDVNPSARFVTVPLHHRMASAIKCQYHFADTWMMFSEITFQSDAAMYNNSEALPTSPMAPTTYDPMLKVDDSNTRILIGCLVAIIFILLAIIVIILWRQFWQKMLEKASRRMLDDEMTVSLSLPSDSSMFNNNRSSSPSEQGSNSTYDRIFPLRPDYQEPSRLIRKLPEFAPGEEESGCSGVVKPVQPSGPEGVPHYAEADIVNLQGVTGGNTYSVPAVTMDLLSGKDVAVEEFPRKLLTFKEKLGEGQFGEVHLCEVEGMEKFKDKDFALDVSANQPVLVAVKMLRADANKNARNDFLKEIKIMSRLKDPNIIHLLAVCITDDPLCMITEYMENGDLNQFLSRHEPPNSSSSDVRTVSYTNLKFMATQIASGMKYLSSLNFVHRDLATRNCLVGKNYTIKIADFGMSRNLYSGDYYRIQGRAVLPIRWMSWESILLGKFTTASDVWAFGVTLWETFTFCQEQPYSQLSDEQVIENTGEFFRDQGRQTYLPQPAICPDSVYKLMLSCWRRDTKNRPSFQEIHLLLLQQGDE
Chain of TAOK2 (human) (Q9UL54 whole entry, looked up): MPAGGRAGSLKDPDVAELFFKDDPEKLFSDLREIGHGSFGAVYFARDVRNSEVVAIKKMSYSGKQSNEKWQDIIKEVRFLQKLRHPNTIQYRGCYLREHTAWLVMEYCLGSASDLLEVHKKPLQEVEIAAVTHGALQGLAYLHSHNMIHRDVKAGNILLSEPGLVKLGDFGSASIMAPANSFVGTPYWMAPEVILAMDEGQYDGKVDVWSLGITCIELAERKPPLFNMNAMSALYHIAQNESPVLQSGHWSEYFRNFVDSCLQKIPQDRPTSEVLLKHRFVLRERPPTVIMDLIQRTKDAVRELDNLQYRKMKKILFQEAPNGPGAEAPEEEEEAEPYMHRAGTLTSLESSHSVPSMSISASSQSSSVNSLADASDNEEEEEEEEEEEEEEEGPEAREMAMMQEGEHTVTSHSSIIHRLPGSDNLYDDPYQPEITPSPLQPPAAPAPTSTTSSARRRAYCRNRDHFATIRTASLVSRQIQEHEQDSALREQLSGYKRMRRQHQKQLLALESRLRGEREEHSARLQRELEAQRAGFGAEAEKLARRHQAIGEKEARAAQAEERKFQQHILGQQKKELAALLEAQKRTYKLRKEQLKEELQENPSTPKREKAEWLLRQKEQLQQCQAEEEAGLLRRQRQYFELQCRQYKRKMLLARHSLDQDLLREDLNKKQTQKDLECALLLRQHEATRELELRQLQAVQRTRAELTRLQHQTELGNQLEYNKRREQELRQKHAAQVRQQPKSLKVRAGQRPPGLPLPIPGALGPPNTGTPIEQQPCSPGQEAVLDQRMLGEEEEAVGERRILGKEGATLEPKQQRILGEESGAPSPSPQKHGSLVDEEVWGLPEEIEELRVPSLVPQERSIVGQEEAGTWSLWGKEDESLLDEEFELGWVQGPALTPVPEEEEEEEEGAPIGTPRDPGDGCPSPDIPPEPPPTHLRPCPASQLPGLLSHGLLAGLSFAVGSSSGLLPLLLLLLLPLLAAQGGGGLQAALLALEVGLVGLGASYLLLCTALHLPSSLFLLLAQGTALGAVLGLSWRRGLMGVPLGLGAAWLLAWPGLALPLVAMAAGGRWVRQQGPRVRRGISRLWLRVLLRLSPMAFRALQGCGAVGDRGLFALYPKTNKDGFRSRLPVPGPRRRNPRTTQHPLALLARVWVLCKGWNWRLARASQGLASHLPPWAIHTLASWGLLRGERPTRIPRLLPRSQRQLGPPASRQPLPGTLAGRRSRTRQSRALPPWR
Chain of OXSR1 (human) (O95747 whole entry, looked up): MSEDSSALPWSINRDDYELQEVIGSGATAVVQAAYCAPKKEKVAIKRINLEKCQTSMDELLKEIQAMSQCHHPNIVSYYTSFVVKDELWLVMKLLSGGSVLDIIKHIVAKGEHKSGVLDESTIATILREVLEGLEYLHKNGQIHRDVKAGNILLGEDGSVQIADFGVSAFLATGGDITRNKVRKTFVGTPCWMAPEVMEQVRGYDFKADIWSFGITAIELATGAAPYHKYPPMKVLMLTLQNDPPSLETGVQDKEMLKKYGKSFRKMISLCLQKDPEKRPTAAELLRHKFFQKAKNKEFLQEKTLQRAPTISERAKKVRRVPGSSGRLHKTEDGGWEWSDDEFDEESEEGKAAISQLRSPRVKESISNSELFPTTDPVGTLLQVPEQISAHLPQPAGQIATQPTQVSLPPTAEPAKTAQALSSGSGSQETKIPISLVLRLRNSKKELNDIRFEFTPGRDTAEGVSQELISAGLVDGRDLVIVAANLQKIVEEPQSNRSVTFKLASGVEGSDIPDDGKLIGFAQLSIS

Q: N#C/C(=C\c1ccc(O)c(O)c1)C(=O)NCc1ccccc1 was tested. Which residual activity (TAOK3 (human)) did it give?
A: The residual activity was 103%.

Q: And the residual activity (LTK (human))?
A: Its residual activity is 91.4%.

Q: What about the residual activity (PRKD1 (human)) of the same compound?
A: The residual activity was 92.5%.

Q: What about the residual activity (STK24 (human)) of the same compound?
A: The residual activity was 100%.

Q: And the residual activity (HIPK2 (human))?
A: The residual activity was 101%.

Q: And the residual activity (MAP2K2 (human))?
A: The residual activity was 105%.

Q: And the residual activity (ABL2 (human))?
A: Its residual activity is 93.4%.

Q: And the residual activity (FLT3 (human))?
A: Its residual activity is 92.8%.

Q: What about the residual activity (MYLK (human)) of the same compound?
A: Its residual activity is 94.5%.

Q: And the residual activity (FGFR2 (human))?
A: Its residual activity is 98.1%.

Q: And the residual activity (PRKCE (human))?
A: Its residual activity is 100%.

Q: And the residual activity (STK16 (human))?
A: Its residual activity is 99.1%.

Q: What about the residual activity (FGR (human)) of the same compound?
A: Its residual activity is 93.7%.

Q: And the residual activity (JAK2 JH1 JH2 (human))?
A: The residual activity was 98.1%.

Q: What about the residual activity (DYRK1A (human)) of the same compound?
A: The residual activity was 102%.

Q: And the residual activity (MAP3K14 (human))?
A: The residual activity was 109%.

Q: And the residual activity (KIT (human))?
A: The residual activity was 93.9%.

Q: What about the residual activity (SRPK2 (human)) of the same compound?
A: The residual activity was 96.6%.

Q: What about the residual activity (MAPK9 (human)) of the same compound?
A: The residual activity was 103%.

Q: What about the residual activity (PASK (human)) of the same compound?
A: The residual activity was 95.1%.

Q: What about the residual activity (AURKB (human)) of the same compound?
A: Its residual activity is 94.4%.

Q: And the residual activity (CAMKK1 (human))?
A: Its residual activity is 102%.

Q: What about the residual activity (DDR2 (human)) of the same compound?
A: Its residual activity is 97.2%.

Q: And the residual activity (CLK2 (human))?
A: The residual activity was 110%.

Q: And the residual activity (DSTYK (human))?
A: Its residual activity is 91%.

Q: What about the residual activity (CDK7 CCNH MNAT1 (human)) of the same compound?
A: The residual activity was 120%.

Q: And the residual activity (TAOK2 (human))?
A: The residual activity was 95.7%.

Q: And the residual activity (OXSR1 (human))?
A: The residual activity was 101%.

Q: What about the residual activity (SIK2 (human)) of the same compound?
A: The residual activity was 99.7%.

Q: What about the residual activity (PLK2 (human)) of the same compound?
A: Its residual activity is 105%.

Q: What about the residual activity (EPHA1 (human)) of the same compound?
A: Its residual activity is 99.4%.

Q: And the residual activity (CAMK2A (human))?
A: Its residual activity is 100%.

Q: And the residual activity (ALK (human))?
A: Its residual activity is 105%.

Q: What about the residual activity (TNK2 (human)) of the same compound?
A: The residual activity was 98.3%.

Q: And the residual activity (DCLK2 (human))?
A: Its residual activity is 101%.

Q: What about the residual activity (CSNK1G3 (human)) of the same compound?
A: The residual activity was 104%.

Q: What about the residual activity (MST1R (human)) of the same compound?
A: The residual activity was 102%.

Q: What about the residual activity (TYRO3 (human)) of the same compound?
A: The residual activity was 109%.

Q: What about the residual activity (AURKC (human)) of the same compound?
A: The residual activity was 95.5%.

Q: And the residual activity (CSNK2A2 (human))?
A: The residual activity was 81.9%.

Q: And the residual activity (SLK (human))?
A: The residual activity was 99.1%.

Q: What about the residual activity (PRKACA (human)) of the same compound?
A: The residual activity was 104%.

Q: For O=C1NC(=O)c2c1c1c3ccccc3[nH]c1n1cncc21, which residual activity (TAOK3 (human)) is on record?
A: Its residual activity is 66.9%.

Q: What about the residual activity (LTK (human)) of the same compound?
A: Its residual activity is 80.8%.

Q: What about the residual activity (PRKD1 (human)) of the same compound?
A: The residual activity was 61.4%.

Q: What about the residual activity (STK24 (human)) of the same compound?
A: Its residual activity is 48.4%.

Q: And the residual activity (HIPK2 (human))?
A: Its residual activity is 94.4%.

Q: And the residual activity (MAP2K2 (human))?
A: Its residual activity is 85.9%.

Q: And the residual activity (ABL2 (human))?
A: Its residual activity is 79.9%.

Q: And the residual activity (FLT3 (human))?
A: Its residual activity is 9.86%.

Q: And the residual activity (MYLK (human))?
A: Its residual activity is 15.5%.

Q: And the residual activity (FGFR2 (human))?
A: The residual activity was 91.3%.

Q: And the residual activity (PRKCE (human))?
A: Its residual activity is 84.9%.

Q: What about the residual activity (STK16 (human)) of the same compound?
A: Its residual activity is 70.9%.

Q: And the residual activity (FGR (human))?
A: The residual activity was 94.8%.

Q: And the residual activity (JAK2 JH1 JH2 (human))?
A: Its residual activity is 117%.

Q: And the residual activity (DYRK1A (human))?
A: Its residual activity is 89.1%.

Q: What about the residual activity (MAP3K14 (human)) of the same compound?
A: Its residual activity is 83%.

Q: And the residual activity (KIT (human))?
A: The residual activity was 38%.

Q: And the residual activity (SRPK2 (human))?
A: Its residual activity is 80.2%.

Q: What about the residual activity (MAPK9 (human)) of the same compound?
A: The residual activity was 65.3%.

Q: And the residual activity (PASK (human))?
A: The residual activity was 33.6%.

Q: And the residual activity (AURKB (human))?
A: Its residual activity is 25.2%.

Q: What about the residual activity (CAMKK1 (human)) of the same compound?
A: Its residual activity is 63.5%.

Q: What about the residual activity (DDR2 (human)) of the same compound?
A: Its residual activity is 96.5%.

Q: What about the residual activity (CLK2 (human)) of the same compound?
A: The residual activity was 94.7%.

Q: What about the residual activity (DSTYK (human)) of the same compound?
A: Its residual activity is 106%.

Q: And the residual activity (CDK7 CCNH MNAT1 (human))?
A: The residual activity was 92.3%.

Q: And the residual activity (TAOK2 (human))?
A: Its residual activity is 89.4%.

Q: And the residual activity (OXSR1 (human))?
A: The residual activity was 97.2%.

Q: What about the residual activity (SIK2 (human)) of the same compound?
A: The residual activity was 91.9%.

Q: And the residual activity (PLK2 (human))?
A: Its residual activity is 63.8%.

Q: And the residual activity (EPHA1 (human))?
A: The residual activity was 72.4%.

Q: What about the residual activity (CAMK2A (human)) of the same compound?
A: Its residual activity is 55.1%.

Q: What about the residual activity (ALK (human)) of the same compound?
A: The residual activity was 84.6%.

Q: And the residual activity (TNK2 (human))?
A: Its residual activity is 41.3%.

Q: And the residual activity (DCLK2 (human))?
A: The residual activity was 82.3%.

Q: And the residual activity (CSNK1G3 (human))?
A: Its residual activity is 87%.

Q: What about the residual activity (MST1R (human)) of the same compound?
A: The residual activity was 102%.

Q: What about the residual activity (TYRO3 (human)) of the same compound?
A: Its residual activity is 88.8%.

Q: And the residual activity (AURKC (human))?
A: The residual activity was 47.6%.

Q: And the residual activity (CSNK2A2 (human))?
A: Its residual activity is 53.4%.

Q: And the residual activity (SLK (human))?
A: Its residual activity is 87.8%.

Q: And the residual activity (PRKACA (human))?
A: The residual activity was 98.2%.
